Results on two compounds are retold here after patent US11254907B2, “Fungal volatile organic compound enhances plant s growth characteristics” (The United States of America as represented by the …, priority 2018, dated 2022).

For experiment [1] the following is noted: NPA as low as 5 μM; cited from earlier work.
Another experiment has as its system tobacco seedlings. The experiment in a line: Polar auxin transport interference test (NPA in plant culture medium with MVOCs). Format: in vivo, Nicotiana tabacum. The conditions noted are these: 10 μM NPA, 20 days. The method, then: In vitro containment conditions for fungal cultures were modified to utilize culture tube closure or cap (3×4 cm, diameter×length, closure for 25 mm culture tubes, Sigma C5791) in order to mitigate problems related to condensation build-up inside the filter-sealed microcentrifuge tubes that could suffocate growing fungus and reduce MVOC emission, as subsequently noticed. For each sterile closure cap, 5 ml semi-solid MS medium was added and 10 μl of conidial suspension at a density of 1×10^5 CFU per ml was subsequently introduced. The fungal culture in the closure was then placed in a Magenta™ GA7 vessel that contains tobacco seedlings. For controls, a blank culture cap was added. All experiments were repeated three times. Each involved three treated and untreated vessels, respectively, and three replicate plants for each vessel. Cultures were placed under light conditions with a 16-h photoperiod at 25° C. Plants were treated with 10 or 20 d of fungal exposure duration. Regardless of exposure duration used, plant growth was monitored and compared with controls without fungal cultures at the end of 20 d after introduction of fungal cultures. For polar auxin transport interference tests, 10 μM auxin transport inhibitor N-1-naphthylphthalamic acid (NPA) is incorporated in plant culture medium and used to assess plant response in the presence of MVOCs. […]

Experiment [2] concerns peach rootstock 'Bailey-OP' (Prunus persica). The experiment in a line: Root primordia induction from peach in vitro shoots on mLP with IBA. Format: in vivo. As to the method: A two-step process was tested to induce roots from in vitro shoots and establish plants in the greenhouse. In vitro shoots of the peach rootstock ‘Bailey-OP’ (Prunus persica) of longer than 2 cm in height were first transferred to a modified Lepoivre LP medium (mLP) containing basal salts of LP medium (Quorin and Lepoivre, Acta Hort. 78:437-442, 1977) and a vitamin mixture composed of 1.0 mg/L thiamine-HCl, 1.0 mg/L nicotinic acid, 1.0 mg/L pyridoxine-HCl, 4.0 mg/L glycine, 0.2 mg/L biotin and 2.0 mg/L Ca-pathothenate (mLP) supplemented with various concentrations of indole-3-butyric acid (IBA) and cultured for two weeks to induce root primordia. The IBA concentrations ranged from 0.5 to 2.0 mg/L. Shoots with root primordia at the base were then taken out and separated into two groups. The first group was cultured on mLP medium without any growth regulators for continuous plant development as a control, whereas the second group was maintained on a similar growth regulator-free mLP medium but with a culture tube closure containing MVOC-emitting fungus of C. sp isolate TC09 (Accession No. NRRL 67603).

For the compound `O=C(O)c1ccccc1C(=O)Nc1cccc2ccccc12` [NPA, N-1-naphthylphthalamic acid], the “effect on stimulatory effects of Fusarium oxysporum MVOCs on plant biomass increase” value in experiment [1] is “completely negating”. In the experiment on tobacco seedlings, the “effect on root length, number of leaves and largest leaf length of C. sp treated plants” value was “remained similar”; the lateral root formation result is “arrested lateral root formation”.
As for `O=C(O)CCCc1c[nH]c2ccccc12` [IBA, indole-3-butyric acid], in experiment [2] (0.5 mg/L IBA), the root formation efficiency result is given as “very low root formation efficiency”. For the same compound, in experiment [2] (1.0 mg/L IBA), the root formation frequency entry is “up to 70%”. Moreover, the values for the root induction efficiency entry in experiment [2] (1.5 mg/L IBA) and in experiment [2] (2.0 mg/L IBA) were “great reduction in root induction efficiency” and “less than 20%”, respectively.
